Measured values reported in patent US7595313B2, “Nitric oxide donating diuretic compounds, compositions and methods of use” (NicOx, S.A., priority 2005, dated 2009).
Marks after values point to notes of the source that are not given here.

Key:
[1] = system: Dahl salt sensitive rats; assay: Blood pressure determination under in vivo conditions in the Dahl salt sensitive rat; conditions: Dahl salt sensitive rats on high salt (8%) diet, gavage twice a day, 30 mg/kg HCT equivalent, telemetry, FIG. 1
Protocol: (§1) The effect of subchronic administration of Example 1c and hydrochlorothiazide (HCT) on blood pressure was assessed in telemeterized male Dahl salt sensitive rats (5-6 weeks old; 125-150 g) fed a high salt (8%) diet for 4 weeks. Compounds were administered twice a day for 7 eight days via gavage at 30 mg/kg HCT equivalent in a 0.5% methylcellulose vehicle. Blood pressure was continuously monitored by telemetry and reported as a change in mean arterial blood pressure (MABP) over a 24 h period.

[2] = system: Male Wistar rats; assay: Determination of the diuresis (urine volume over 6 hours after oral dosing); type: in vivo, rat
Method in brief: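 Male Wistar rats (180-200 g) in metabolic cages, fasted 18 h, water withdrawn 90 min before dosing. Compounds in 0.5% Methocel given p.o. at 30 or 3 mg/kg; urine volume collected over 6 h. Mean ±SEM, n=6 or 7.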

[3] = system: Spontaneously Hypertensive rats (SHR); assay: Blood pressure determination under in vivo conditions in the Spontaneously Hypertensive rat; conditions: gavage twice a day, 30 mg/kg HCT equivalent, telemetry, FIG. 2
Protocol: as §1, with “17b” for “1c”, “Spontaneously Hypertensive” for “Dahl salt sensitive”, “(SHR; 9-10” for “(5-6”, “250-300 g).” for “125-150 g) fed a high salt (8%) diet for 4 weeks.”

[4] = system: isolated rat aorta precontracted with phenylephrine; assay: In vitro relaxant effect in rat aorta
Protocol: The ability of Example 46b to relax isolated rat aorta precontracted with phenylephrine (1 μM) was studied. Example 46b was an efficacious relaxant agent in the rat aorta with an EC50 value of ˜7 μM. The vasorelaxant response elicited by Example 46b was abolished in the presence of ODQ, a potent and selective inhibitor of nitric oxide (NO)-sensitive guanylyl cyclase.

[5] = system: plasma renin; assay: Rat renin inhibition under in vivo conditions (chronic administration via mini-osmotic pumps); conditions: for RENIN (Relative Units) DAY 0: Day 0 tail vein blood sample; for RENIN (Relative Units) DAY 0 / RENIN (Relative Units) Day 29: male Wistar rats, N=8; for RENIN (Relative Units) Day 29: terminal plasma day 29 after 28 days s.c. mini-pump, 10 mg/kg/day molar equivalent doses
Protocol: (§2) The effect of chronic administration of Example 51 and hydrochlorothiazide (HCT) on plasma aldosterone and renin levels was tested in male Wistar rats. Compounds were administered via mini-osmotic pumps implanted subcutaneously in the scapular area of the rats using asceptic techniques. Molar equivalent doses of HCT and Example 51 (10 mg/kg/day) in 50% DMSO/PEG300 were delivered for 28 days via Alzet mini-pumps and compared to vehicle treated animals. A 250 μl blood sample was obtained from tail vein cannulae for analysis of aldosterone and plasma renin levels (Day 0). Terminal plasma was collected on day 29 for analysis of aldosterone and plasma renin levels. Plasma renin and aldosterone were measured utilizing commercially available kits (Cayman Chemical; Ann Arbor, Mich. and Alpha Diagnostics; San Antonio, Tex., respectively).

[6] = system: plasma aldosterone; assay: Rat aldosterone inhibition under in vivo conditions (chronic administration via mini-osmotic pumps); conditions: for ALDOSTERONE (pg/ml) DAY 0: Day 0 tail vein blood sample; for ALDOSTERONE (pg/ml) DAY 0 / ALDOSTERONE (pg/ml) Day 29: male Wistar rats, N=8; for ALDOSTERONE (pg/ml) Day 29: terminal plasma day 29 after 28 days s.c. mini-pump, 10 mg/kg/day molar equivalent doses
Protocol: as §2

[7] = p.o. 3 mg/kg in 0.5% Methocel, male Wistar rats, 6 hours, mean ± SEM, n=6 or 7
[8] = day 29, 10 mg/kg/day for 28 days, result in words

| Structure (SMILES) | melting point | Urine collected in 6 hours (mL) (3 mg/kg) [2, 7] | RENIN (Relative Units) DAY 0 [5] [Relative Units] | RENIN (Relative Units) Day 29 [5] | ALDOSTERONE (pg/ml) DAY 0 [6] [pg/mL] | ALDOSTERONE (pg/ml) Day 29 [6] | also measured |
| --- | --- | --- | --- | --- | --- | --- | --- |
| NS(=O)(=O)c1cc2c(cc1Cl)NC(CCCCCO[N+](=O)[O-])NS2(=O)=O (stereo not drawn) [Example 1c, 2H-1,2,4-Benzothiadiazine-7-sulfonamide, 6-chloro-3,4-dihydro-3-[5-(nitrooxy)pentyl]-, 1,1-dioxide] | 158 to 161 °C | 6.6 ± 0.4 |  |  |  |  | reductions in blood pressure (mean arterial blood pressure) during the treatment period [1]: approximately 5 mm Hg; Urine collected in 6 hours (mL) (30 mg/kg) ([2]; p.o. 30 mg/kg in 0.5% Methocel, male Wistar rats, 6 hours, mean ± SEM, n=6 or 7): 7.6 ± 0.5 mL |
| NS(=O)(=O)c1cc2c(cc1Cl)NC(CCCCO[N+](=O)[O-])NS2(=O)=O (stereo not drawn) [Example 17b, 2H-1,2,4-Benzothiadiazine-7-sulfonamide, 6-chloro-3,4-dihydro-3-[4-(nitrooxy)butyl]-, 1,1-dioxide] | 171 to 179 °C |  |  |  |  |  | reductions in blood pressure (mean arterial blood pressure) during the treatment period, larger than with HCT [3]: 5-6 mm Hg |
| NS(=O)(=O)c1cc2c(cc1Cl)NCN(CCCCCO[N+](=O)[O-])S2(=O)=O [Example 46b, 2H-1,2,4-Benzothiadiazine-7-sulfonamide, 6-chloro-3,4-dihydro-2-[5-(nitrooxy)pentyl]-, 1,1-dioxide] | 120 to 123 °C | 7.3 ± 0.7 |  |  |  |  | vasorelaxant response in the presence of ODQ ([4]; ODQ, inhibitor of NO-sensitive guanylyl cyclase, rat aorta precontracted with phenylephrine (1 μM)): abolished; EC50 ([4]; Rattus norvegicus, aortic rings precontracted with phenylephrine (1 μM), relaxation as % of maximum by papaverine): ~7 µM |
| NS(=O)(=O)c1cc2c(cc1Cl)NCN(CCO[N+](=O)[O-])S2(=O)=O [Example 51, 2H-1,2,4-Benzothiadiazine-7-sulfonamide, 6-chloro-3,4-dihydro-2-[2-(nitrooxy)ethyl]-, 1,1-dioxide] | 161 to 163 °C (dec.) | 8.0 ± 1.1 | 6.1 ± 0.3 | 9.5 ± 0.5^a,b Relative Units | 540.8 ± 38.9 | 1326.6 ± 118.7^c pg/ml | plasma renin measured on day 29 as compared to vehicle or HCT treated rats [5, 8]: significantly lowered; plasma aldosterone measured on day 29 as compared to vehicle or HCT treated rats [6, 8]: significantly lowered |
| NS(=O)(=O)c1cc2c(cc1Cl)NC(CCc1cc(CO[N+](=O)[O-])cc(CO[N+](=O)[O-])c1)NS2(=O)=O (stereo not drawn) [Example 80b, 2H-1,2,4-Benzothiadiazine-7-sulfonamide, 3-[2-[3,5-bis[(nitrooxy)methyl]phenyl]ethyl]-6-chloro-3,4-dihydro-, 1,1-dioxide] | 101 to 104 °C |  |  |  |  |  | Urine collected in 6 hours (mL) (3 mg/kg) ([2]; rat, in vivo, po): 3.9 ± 0.5 mL |
| NS(=O)(=O)c1cc2c(cc1Cl)NCNS2(=O)=O [HCT, hydrochlorothiazide, reference compound] |  |  | 5.0 ± 0.6 | 24.6 ± 1.0 Relative Units | 411.5 ± 41.8 | 2081.0 ± 232.1 pg/mL |  |
